Test results: patent EP1860442A2, “Neurosteroids as markers for Alzheimer's disease” (Georgetown University, priority 2000, dated 2001)

Columns and labels:
MGM-1 cells [1] = assay: β-Amyloid regulation of the alternative pathway: D synthesis; format: cell-based, human; conditions: 50 mM Aβ versus control, p < 0.01
Method: Alternative Pathway: To determine the amount ofD synthesized by the alternative pathway cells were treated as previously described (15). In brief, cells were washed and oligodendrocytes and astrocytes were incubated with increasing concentrations of FeSO4 in serum free media, with and without SU 10603 (10 mM); neurons were incubated in serum free media containing 5 mM P plus FeSO4, with and without 10 mM SU 10603. After two hours, cells and media were homogenized and extracted as described above. Extracts were run on C18 TLC plates (Whatman, Clifton, NJ) with a mobile phase of 95% methanol (v/v); radiolabeled standards for P, progesterone, and D were run on each plate, and appropriate steroid fractions were collected for each sample. TLC fractions were extracted with 2 ml diethyl ether (Fluka, New York) and evaporated. TLC extracts were assayed by specific radioimmunoassay (RIA). […]
RIA using antibodies specific for each steroid (ICN Pharmaceuticals, Costa Mesa, CA Mesa) was used to measure P, progesterone and D levels. The data were analyzed using the IBM-PC RIA Data Reduction Program (version 4.1) from Jaffe and Associates (Silver Spring, MD). Levels of β-amyloid species in AD and control brain samples were analyzed using 4G8 (Senetex PLC, Napa, CA), a monoclonal antibody to β-amyloid peptide that recognizes amino acids 17-24. […]

MGM-1 cells [2] = assay: β-Amyloid regulation of the alternative pathway: ROS (2,7-DCF fluorescence); format: cell-based, human; conditions: 50 mM Aβ versus control, p < 0.01
Method: β-Amyloid Regulation of the Alternative Pathway: MGM-1 cells were plated on 96 well (~5,000 cells/well, for ROS measurements) or 24 well (~15,000 cells/well, for D measurements) plates (Coming Costar, Acton, MA). At the same time, 1mg Ab (Ab (1-42), AnaSpec Inc., San Jose, CA) was dissolved in 0.5 ml serum-free media and incubated at 4C for aggregation. 24 hours later, cells were incubated in DMEM with 10% fetal bovine serum and […] or […] and 10 mM Vitamin E (Sigma, St. Louis, MO). Control samples were incubated in DMEM with 10% FBS. Cells were incubated at 37C and 6% CO2 for at least 12 hours and processed for ROS generation (see below) or D synthesis as described above for the alternative experiments.
Treatment media was removed and the cells were washed with PBS. The fluorescent probe 2,7- dichlorofluorescin diacetate (2,7-DCF, Molecular Probes, Inc., Eugene, OR) was used to measure levels of oxidative stress (48). Cells were incubated with […] 2,7-DCF, fluorescence was measured at 485nm/535nm using the Victor^2 Multilabel Counter (EG&G Wallac, Gaithersburg, MD) and values of cellular fluorescence were obtained.

With “Aβ: β-amyloid peptide Ab (1-42), AnaSpec Inc., aggregated; a component of Alzheimer's disease plaques” the D levels (MGM-1 cells [1]) was “increased D levels significantly over control” and the “2,7-DCF fluorescence (ROS)” value (MGM-1 cells [2]) was “significant increase”.
